According to patent US8017612B2, “Piperazine compound and use thereof as a HCV polymerase inhibitor” (priority 2006, dated 2011):
pIC50: −log10 of the molar value.

Legend:
[1] = target: T1, HCV polymerase (NS5B) type 1a (Hepatitis C virus genotype 1a, UniProt P26664); test: Assay of enzyme (HCV polymerase) inhibitory activity, type 1a enzyme; type: biochemical, HCV type 1a (cloned from the blood of patients)
T1 construct: made in house; host or cells: Escherichia coli (by the 'similar method' of the 1b enzyme)
How it was run: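 His-tagged NS5B, C-terminal 47 residues deleted, type 1a at 1.5 μg/ml, with 5 μg/ml HCV 3′UTR substrate RNA, 50 μM ATP/GTP/CTP, 2 μM UTP plus [3H]UTP, pH 7.5 Tris, 5 mM MgCl2; 60 min at 25° C. TCA-precipitated RNA counted by scintillation; IC50 from radioactivity with vs. without compound.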

[2] = target: T2, HCV polymerase (NS5B) type 1b (Hepatitis C virus genotype 1b, UniProt P26663); test: Assay of enzyme (HCV polymerase) inhibitory activity, type 1b enzyme; type: biochemical, HCV BK strain (type 1b)
T2 construct: a region encoding NS5B (J Virol 1991 March, 65(3), 1105-13, 544 amino acids after deletion of 47 amino acids on the C-terminal); 6xHis (C); made in house; host or cells: Escherichia coli
How it was run: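 His-tagged, C-terminally truncated NS5B (BK strain, 1b; 0.5 μg/ml) incubated with compound 60 min at 25 °C on 3′UTR-derived substrate RNA (5 μg/ml), 50 μM ATP/GTP/CTP, 2 μM UTP plus [3H]UTP, pH 7.5. Acid-precipitated RNA counted; IC50 from radioactivity with and without compound.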

[3] = HCV polymerase inhibitory activity (IC50), 1a, type 1a enzyme 1.5 μg/ml, 25° C., 60 min
[4] = HCV polymerase inhibitory activity (IC50), 1b, type 1b enzyme 0.5 μg/ml, 25° C., 60 min
[5] = HCV polymerase inhibitory activity IC50, 1a, type 1a enzyme
[6] = HCV polymerase inhibitory activity IC50, 1b, type 1b enzyme

SMILES: COCc1ccc(CNC(=O)[C@H]2CN(c3cnc4cncnc4n3)CCN2S(=O)(=O)c2ccc(OC(F)(F)F)cc2)cc1 [Example 657, (R)-4-pteridin-7-yl-1-(4-trifluoromethoxy-benzenesulfonyl)-piperazine-2-carboxylic acid 4-methoxymethyl-benzylamide]
- pIC50 [1, 3]: > 7.00
- pIC50 [2, 4]: > 7.00

SMILES: COc1ccc(CNC(=O)[C@H]2CN(c3cnc4cncnc4n3)CCN2S(=O)(=O)c2ccc(OC(F)(F)F)cc2)cc1 [Example 658, (R)-4-pteridin-7-yl-1-(4-trifluoromethoxy-benzenesulfonyl)-piperazine-2-carboxylic acid 4-methoxy-benzylamide]
- pIC50 [1, 3]: > 7.00
- pIC50 [2, 4]: > 7.00

SMILES: O=C(NCc1ccc(-c2cccs2)s1)[C@H]1CN(c2cnc3cncnc3n2)CCN1S(=O)(=O)c1ccc(OC(F)(F)F)cc1 [Example 659, (R)-4-pteridin-7-yl-1-(4-trifluoromethoxy-benzenesulfonyl)-piperazine-2-carboxylic acid ([2,2′]bithiophenyl-5-ylmethyl)-amide]
- pIC50 [1, 3]: > 7.00
- pIC50 [2, 4]: > 7.00

SMILES: O=C(NCc1ccc(C(F)(F)F)cc1)[C@H]1CN(c2cnc3cncnc3n2)CCN1S(=O)(=O)c1ccc(OC(F)(F)F)cc1 [Example 660, (R)-4-pteridin-7-yl-1-(4-trifluoromethoxy-benzenesulfonyl)-piperazine-2-carboxylic acid 4-trifluoromethyl-benzylamide]
- pIC50 [1, 3]: > 7.00
- pIC50 [2, 4]: > 7.00

SMILES: CSc1ccc(CNC(=O)[C@H]2CN(c3cnc4cncnc4n3)CCN2S(=O)(=O)c2ccc(OC(F)(F)F)cc2)cc1 [Example 661, (R)-4-pteridin-7-yl-1-(4-trifluoromethoxy-benzenesulfonyl)-piperazine-2-carboxylic acid 4-methylsulfanyl-benzylamide]
- pIC50 [1, 5]: > 7.00
- pIC50 [2, 6]: > 7.00

SMILES: CCCN1CC=C(CNC(=O)[C@H]2CN(c3cnc4cncnc4n3)CCN2S(=O)(=O)c2ccc(OC(F)(F)F)cc2)CC1 [Example 662, (R)-4-pteridin-7-yl-1-(4-trifluoromethoxy-benzenesulfonyl)-piperazine-2-carboxylic acid (1-propyl-1,2,3,6-tetrahydro-pyridin-4-ylmethyl)-amide]
- pIC50 [1, 5]: < 6.00
- pIC50 [2, 6]: 6.00 to 7.00

SMILES: O=C(NCc1ccc(-c2ccccc2)cc1)[C@H]1CN(c2cnc3cncnc3n2)CCN1S(=O)(=O)c1ccc(OC(F)(F)F)cc1 [Example 663, (R)-4-pteridin-7-yl-1-(4-trifluoromethoxy-benzenesulfonyl)-piperazine-2-carboxylic acid (biphenyl-4-ylmethyl)-amide]
- pIC50 [1, 5]: > 7.00
- pIC50 [2, 6]: > 7.00

SMILES: CCC(F)(F)c1ccc(CNC(=O)[C@H]2CN(c3nc4c(=O)[nH]ncc4s3)CCN2S(=O)(=O)c2ccc(OC(F)(F)F)cc2)cc1 [Example 664, (R)-4-(4-oxo-4,5-dihydro-thiazolo[4,5-d]pyridazin-2-yl)-1-(4-trifluoromethoxy-benzenesulfonyl)-piperazine-2-carboxylic acid 4-(1,1-difluoro-propyl)-benzylamide]
- pIC50 [1, 5]: > 7.00
- pIC50 [2, 6]: > 7.00

SMILES: CC(C)(C)c1ccc(CNC(=O)[C@H]2CN(C(=O)/C=C\C(=O)O)CCN2S(=O)(=O)c2ccc(OC(F)(F)F)cc2)cc1 [Example 665, (Z)-4-[(R)-3-(4-tert-butyl-benzylcarbamoyl)-4-(4-trifluoromethoxy-benzenesulfonyl)-piperazin-1-yl]-4-oxo-but-2-enoic acid]
- pIC50 [1, 5]: < 6.00
- pIC50 [2, 6]: < 6.00

SMILES: CCC(F)(F)c1ccc(CNC(=O)[C@H]2CN(C(=O)/C=C\C(=O)O)CCN2S(=O)(=O)c2ccc(OC(F)(F)F)cc2)cc1 [Example 666, (Z)-4-[(R)-3-[4-(1,1-difluoro-propyl)-benzylcarbamoyl]-4-(4-trifluoromethoxy-benzenesulfonyl)-piperazin-1-yl]-4-oxo-but-2-enoic acid]
- pIC50 [1, 5]: < 6.00
- pIC50 [2, 6]: < 6.00

SMILES: CCC(F)(F)c1ccc(CNC(=O)[C@H]2CN(C(=O)/C=C/C(=O)O)CCN2S(=O)(=O)c2ccc(OC(F)(F)F)cc2)cc1 [Example 667, (E)-4-[(R)-3-[4-(1,1-difluoro-propyl)-benzylcarbamoyl]-4-(4-trifluoromethoxy-benzenesulfonyl)-piperazin-1-yl]-4-oxo-but-2-enoic acid]
- pIC50 [1, 5]: < 6.00
- pIC50 [2, 6]: 6.00 to 7.00

SMILES: CC(C)(C)c1ccc(CNC(=O)[C@H]2CN(C(=O)/C=C/C(=O)O)CCN2S(=O)(=O)c2ccc(OC(F)(F)F)cc2)cc1 [Example 668, (E)-4-[(R)-3-(4-tert-butyl-benzylcarbamoyl)-4-(4-trifluoromethoxy-benzenesulfonyl)-piperazin-1-yl]-4-oxo-but-2-enoic acid]
- pIC50 [1, 5]: < 6.00
- pIC50 [2, 6]: < 6.00

SMILES: CC(=O)N1CCN(S(=O)(=O)c2ccc(OC(F)(F)F)cc2)[C@@H](C(=O)NC[C@H]2CC[C@H](C(=O)O)CC2)C1 [Example 669, trans-4-({[(R)-4-acetyl-1-(4-trifluoromethoxy-benzenesulfonyl)-piperazine-2-carbonyl]-amino}-methyl)-cyclohexanecarboxylic acid]
- pIC50 [1, 5]: < 6.00
- pIC50 [2, 6]: < 6.00

SMILES: CC(=O)N1CCC(CNC(=O)[C@H]2CN(C(C)=O)CCN2S(=O)(=O)c2ccc(OC(F)(F)F)cc2)CC1 [Example 670, (R)-4-acetyl-1-(4-trifluoromethoxy-benzenesulfonyl)-piperazine-2-carboxylic acid (1-acetyl-piperidin-4-ylmethyl)-amide]
- pIC50 [1, 5]: < 6.00
- pIC50 [2, 6]: < 6.00

SMILES: COc1ccccc1CCNC(=O)[C@H]1CN(C(C)=O)CCN1S(=O)(=O)c1ccc(OC(F)(F)F)cc1 [Example 671, (R)-4-acetyl-1-(4-trifluoromethoxy-benzenesulfonyl)-piperazine-2-carboxylic acid [2-(2-methoxy-phenyl)-ethyl]-amide]
- pIC50 [1, 5]: < 6.00
- pIC50 [2, 6]: < 6.00

SMILES: COc1cccc(CCNC(=O)[C@H]2CN(C(C)=O)CCN2S(=O)(=O)c2ccc(OC(F)(F)F)cc2)c1 [Example 672, (R)-4-acetyl-1-(4-trifluoromethoxy-benzenesulfonyl)-piperazine-2-carboxylic acid [2-(3-methoxy-phenyl)-ethyl]-amide]
- pIC50 [1, 5]: < 6.00
- pIC50 [2, 6]: < 6.00

SMILES: COc1ccc(CCNC(=O)[C@H]2CN(C(C)=O)CCN2S(=O)(=O)c2ccc(OC(F)(F)F)cc2)cc1 [Example 673, (R)-4-acetyl-1-(4-trifluoromethoxy-benzenesulfonyl)-piperazine-2-carboxylic acid [2-(4-methoxy-phenyl)-ethyl]-amide]
- pIC50 [1, 5]: < 6.00
- pIC50 [2, 6]: < 6.00

SMILES: CC(=O)N1CCN(S(=O)(=O)c2ccc(OC(F)(F)F)cc2)[C@@H](C(=O)NCCc2cccc(O)c2)C1 [Example 674, (R)-4-acetyl-1-(4-trifluoromethoxy-benzenesulfonyl)-piperazine-2-carboxylic acid [2-(3-hydroxy-phenyl)-ethyl]-amide]
- pIC50 [1, 5]: < 6.00
- pIC50 [2, 6]: < 6.00

SMILES: CC(=O)N1CCN(S(=O)(=O)c2ccc(OC(F)(F)F)cc2)[C@@H](C(=O)NCCc2ccc(O)cc2)C1 [Example 675, (R)-4-acetyl-1-(4-trifluoromethoxy-benzenesulfonyl)-piperazine-2-carboxylic acid [2-(4-hydroxy-phenyl)-ethyl]-amide]
- pIC50 [1, 5]: < 6.00
- pIC50 [2, 6]: < 6.00

SMILES: CCC(F)(F)c1ccc(CNC(=O)[C@H]2CN(c3cnc4[nH]cnc4n3)CCN2S(=O)(=O)c2ccc(OC(F)(F)F)cc2)cc1 [Example 676, (R)-4-(1H-imidazo[4,5-b]pyrazin-5-yl)-1-(4-trifluoromethoxy-benzenesulfonyl)-piperazine-2-carboxylic acid 4-(1,1-difluoro-propyl)-benzylamide]
- pIC50 [1, 5]: > 7.00
- pIC50 [2, 6]: > 7.00

SMILES: CCC(F)(F)c1ccc(CNC(=O)[C@H]2CN(C(=O)NCC(=O)O)CCN2S(=O)(=O)c2ccc(OC(F)(F)F)cc2)cc1 [Example 677, {[(R)-3-[4-(1,1-difluoro-propyl)-benzylcarbamoyl]-4-(4-trifluoromethoxy-benzenesulfonyl)-piperazine-1-carbonyl]-amino}-acetic acid]
- pIC50 [1, 5]: < 6.00
- pIC50 [2, 6]: < 6.00

SMILES: CCC(F)(F)c1ccc(CNC(=O)[C@H]2CN(C(=O)CC(=O)O)CCN2S(=O)(=O)c2ccc(OC(F)(F)F)cc2)cc1 [Example 678, 3-[(R)-3-[4-(1,1-difluoro-propyl)-benzylcarbamoyl]-4-(4-trifluoromethoxy-benzenesulfonyl)-piperazin-1-yl]-3-oxo-propionic acid]
- pIC50 [1, 5]: < 6.00
- pIC50 [2, 6]: < 6.00

SMILES: CCC(F)(F)c1ccc(CNC(=O)[C@H]2CN(C(=O)C(=O)O)CCN2S(=O)(=O)c2ccc(OC(F)(F)F)cc2)cc1 [Example 679, [(R)-3-[4-(1,1-difluoro-propyl)-benzylcarbamoyl]-4-(4-trifluoromethoxy-benzenesulfonyl)-piperazin-1-yl]-oxo-acetic acid]
- pIC50 [1, 5]: < 6.00
- pIC50 [2, 6]: < 6.00

SMILES: CCCn1ccc(CNC(=O)[C@H]2CN(c3cnc4cncnc4n3)CCN2S(=O)(=O)c2ccc(OC(F)(F)F)cc2)cc1=O [Example 680, (R)-4-pteridin-7-yl-1-(4-trifluoromethoxy-benzenesulfonyl)-piperazine-2-carboxylic acid (2-oxo-1-propyl-1,2-dihydro-pyridin-4-ylmethyl)-amide]
- pIC50 [1, 5]: < 6.00
- pIC50 [2, 6]: 6.00 to 7.00
